Patent publication US20190337924A1, “SUBSTITUTED HYDANTOIN AND THIOHYDANTOIN DERIVATIVES AS ANDROGEN RECEPTOR ANTAGONISTS” (Janssen Pharmaceutica NV, priority 2016, published 2019)
Structures can show the parent of a compound that is named as a salt.

SMILES	melting point [°C]
CC1(C)C(=O)N(c2ccc(C#N)c(Cl)c2)C(=S)N1c1ccc(OC2CCNCC2)cc1 (as salt: hydrochloride) [Compound 7, 2-Chloro-4-(4,4-dimethyl-5-oxo-3-(4-(piperidin-4-yloxy)phenyl)-2-thioxoimidazolidin-1-yl)benzonitrile hydrochloride]	> 300
CN1CCC(Oc2ccc(N3C(=S)N(c4ccc(C#N)c(Cl)c4)C(=O)C3(C)C)cc2)CC1 (as salt: hydrochloride) [Compound 8, 2-Chloro-4-(4,4-dimethyl-3-(4-((1-methylpiperidin-4-yl)oxy)phenyl)-5-oxo-2-thioxoimidazolidin-1-yl)benzonitrile hydrochloride]	251.7
CC1(C)C(=O)N(c2ccc(C#N)c(Cl)c2)C(=S)N1c1ccc(OC2CCNCC2)nc1 (as salt: hydrochloride) [Compound 9, 2-Chloro-4-(4,4-dimethyl-5-oxo-3-(6-(piperidin-4-yloxy)pyridin-3-yl)-2-thioxoimidazolidin-1-yl)benzonitrile hydrochloride]	216.5
CN1CCC(Oc2ccc(N3C(=S)N(c4ccc(C#N)c(Cl)c4)C(=O)C3(C)C)cn2)CC1 (as salt: hydrochloride) [Compound 10, 2-Chloro-4-(4,4-dimethyl-3-(6-((1-methylpiperidin-4-yl)oxy)pyridin-3-yl)-5-oxo-2-thioxoimidazolidin-1-yl)benzonitrile hydrochloride]	220.9
N#Cc1ccc(N2C(=O)C3(CCC3)N(c3ccc(OC4CCNCC4)nc3)C2=S)cc1Cl (as salt: hydrochloride) [Compound 23, 2-Chloro-4-(8-oxo-5-(6-(piperidin-4-yloxy)pyridin-3-yl)-6-thioxo-5,7-diazaspiro[3.4]octan-7-yl)benzonitrile hydrochloride]	260.1
CN1CCC(Oc2ccc(N3C(=S)N(c4ccc(C#N)c(Cl)c4)C(=O)C34CCC4)cn2)CC1 (as salt: hydrochloride) [Compound 24, 2-Chloro-4-(5-(6-((1-methylpiperidin-4-yl)oxy)pyridin-3-yl)-8-oxo-6-thioxo-5,7-diazaspiro[3.4]octan-7-yl)benzonitrile hydrochloride]	239
